# “Also recorded” adds a separate entry of the source. Where two headings read alike, the source gives them in different places.
# How the values were obtained:
# CHT [1] = molecular target: T1, CHT (Homo sapiens, UniProt Q9GZV3); experiment: Live cell anti-FLAG immunolabeling of CHT cell surface localization in CHT-WT4 cells; format: cell-based; set-up: expressed in transfected cells; host or cells: HEK-293, lentiviral transduction, single-cell clone CHT-WT4; conditions: 1 or 10 μM for 1 h, qualitative observations
# T1 sequence (Q9GZV3 1-580): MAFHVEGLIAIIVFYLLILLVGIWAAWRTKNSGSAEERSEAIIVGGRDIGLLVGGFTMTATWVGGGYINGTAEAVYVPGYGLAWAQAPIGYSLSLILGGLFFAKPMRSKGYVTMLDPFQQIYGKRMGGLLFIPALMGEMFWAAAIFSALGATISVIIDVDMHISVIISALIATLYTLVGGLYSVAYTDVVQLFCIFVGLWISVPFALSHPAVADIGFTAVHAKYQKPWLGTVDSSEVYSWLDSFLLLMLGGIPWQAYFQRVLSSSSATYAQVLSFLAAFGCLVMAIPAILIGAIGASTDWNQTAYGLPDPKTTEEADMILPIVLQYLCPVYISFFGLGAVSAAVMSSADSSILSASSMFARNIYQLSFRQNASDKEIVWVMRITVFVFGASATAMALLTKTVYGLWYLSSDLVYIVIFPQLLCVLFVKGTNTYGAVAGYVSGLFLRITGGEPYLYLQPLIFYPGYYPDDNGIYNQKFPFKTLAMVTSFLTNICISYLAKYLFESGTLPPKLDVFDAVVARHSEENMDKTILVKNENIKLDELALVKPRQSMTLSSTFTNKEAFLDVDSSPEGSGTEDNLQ
# Protocol: Media was removed and cells were washed once with HBSS (+/+). 1 μg/mL Anti-FLAG antibody (F3165, Sigma) was diluted in HBSS (+/+) and added to the cellular monolayer for 30 mins. After incubation, cells were washed three times with HBSS (+/+) followed by incubation with 1:5,000 AF488 labeled secondary antibody (LifeTech) diluted in HBSS (+/+) for 30 min. After three washes, cells were fixed with 4% paraformaldehyde in HBSS (+/+) for 15 min. Nuclei were counterstained with the nuclear dye Hoechst. All images were captured and analyzed on an epifluorescent microsope or Cellomics platform.
# Thus, understanding compound effects on CHT density and activation state in the synaptic membrane may aid interpretation of the effects on cholinergic neurotransmission. Conventional methods such as cell surface biotinylation present challenges in terms of the requirement of large quantities of cells and low throughput. […] Our CHT overexpression construct contains a FLAG tag on the N-terminus which we sought to utilize with antibody detection in non-permeabilized cells. […] We proceeded to investigate the effect of compound treatment in more detail. Cells were incubated with compounds at 1 or 10 μM for 1 h before immunolabeling and visualization.
# CHT [2] = molecular target: T1, CHT; conditions: for D9-choline uptake % effect 1 μM: 1 μM compound; for D9-choline uptake % effect 1 μM / D9-choline uptake % effect 10 μM: HEK293 CHT-WT4, DMSO negative control, 10 μM STS positive control; for D9-choline uptake % effect 10 μM: 10 μM compound
# CHT [3] = molecular target: T1, CHT; experiment: SURFE2R solid supported membrane (SSM) electrophysiology on CHT-WT4 membrane fragments; format: biochemical; set-up: expressed in transfected cells; host or cells: HEK-293, lentiviral transduction, single-cell clone CHT-WT4
# Protocol: A single cell clone of HEK293 overexpressing CHT (CHT-WT4) cells was used to generate membrane fragments to assess on the SURFE^2R platform. Cells were grown to 80% confluence and harvested. The membrane fraction was collected by ultracentrifugation and the plasma membranes were isolated by density gradient centrifugation (Schulz et al., [2008]).
# All experiments were performed on the SURFE^2R N1 device and the matching N1 sensor blanks (Nanion Technologies GmbH, Munich). The sensor blanks include a 3 mm diameter gold surface inside a small well coated by incubating 50 μL of 0.5 mM 1-octadecanethiol dissolved in isopropanol for 30 min, rinsed once with isopropanol and twice with water (ddH2O) and dried for 30 min at room temperature.
# 7.5 μg/μL DPhPC (Avanti Polar Lipids) was dissolved in n-Decane. 1.5 μL were added onto the thiol-coated gold surface. Immediately, 80 μL of potassium buffer was added carefully. The CHT membrane preparation was diluted 1:10 with potassium buffer and sonicated. Eight microliter were added directly onto the SSM by submerging the pipette into the buffer and the sensors were centrifuged for 30 min at 2,200 × g. The quality of the SSM was controlled by determination of conductance σ and capacitance C. The SURFE^2R N1 device includes default functions to perform these measurements. Sensors should have a conductance below 3 nS and capacitance below 20 nF.
# Prepared sensors were inserted into the faraday cage of the SURFE^2R N1 device and buffers applied via its automatic perfusion system, allowing rapid buffer exchange in a continuous liquid flow. The following buffer addition sequence was used for all experiments: Sodium buffer was applied for 2 s with a flow rate of 200 μl/s to establish a sodium gradient over the membrane. […] During those 6 s the current response was recorded. […]
# Raw data were exported as ASCII files, analysis was performed using the scientific graphing and data analysis program IGOR Pro 6 (WaveMetrics, Portland, USA). The evaluated peak currents were determined using a peak detection algorithm. […]
# [4] = molecular target: T2, high affinity choline transporter (CHT) (Homo sapiens, UniProt Q9GZV3); experiment: Radiometric [3H]Choline uptake assay (scintillation proximity) in HEK cells expressing CHT; format: cell-based; conditions: for 3H-choline uptake % effect 1 μM: 1 μM compound; for 3H-choline uptake % effect 1 μM / 3H-choline uptake % effect 10 μM: 100% = 10 μM Staurosporine, 0% = DMSO; for 3H-choline uptake % effect 10 μM: 10 μM compound; for CHT modulator classification in radiometric assay: single point 1 and 10 μM, actives in 10-point dose response
# T2 construct: expressed in transfected cells; host or cells: HEK-293, lentiviral transduction, single-cell clone CHT-WT4
# T2 sequence (Q9GZV3 1-580): T1 sequence (Q9GZV3 1-580)
# Protocol: Uptake of [^3H]Choline (American Radiochemicals; ART 0197; 1,000 Ci/vial; Specific Activity 60–90 Ci/mmol) was measured in HEK cells expressing the high affinity choline transporter (CHT), clone WT4. Cells were plated at 50,000 cells /well in 200 μL culture media on a PDL coated Cytostar-T 96 well plate (Perkin Elmer) 24 h prior to assay. On the day of assay, following two washes and a 30 min pre-incubation at 37°C in 50 μL Na(−) free buffer (0.54 mM KCl, 1.3 mM CaCl2, 0.53 mM MgCl2, 0.4 mM MgSO4, 0.37 mM KH2PO4, 240 mM Sucrose, 4.4 mM Tris-phosphate, 5.5 mM Glycine, 5.6 mM D-Glucose; pH 6.5 with KOH), 25 μL 4X control or test compounds in Na(−) buffer were added to the cells. […] Final DMSO concentration was 0.25%. Following a 30 min incubation at 37°C, 25 μL [^3H]Choline diluted to 320 nM (80 nM final concentration) was added in Na(+) buffer (0.54 mM KCl, 1.3 mM CaCl2, 0.53 mM MgCl2, 0.4 mM MgSO4, 0.37 mM KH2PO4, 138 mM NaCl, 0.28 mM Na2HPO4, 5.5 mM Glycine, 5.6 mM D-Glucose; pH 6.5 with KOH). Plates were sealed with TopSeals (Perkin Elmer) and incubated in darkness for 3 h at room temperature before reading using a Wallac Microbeta, 1 min/well.
# (§1) A preponderance of literature precedent for measuring high affinity choline uptake (HACU) utilizes a radiometric assay to measure [^3H]Choline transport in preparations. […] A number of parameters were assessed in assay development including cell seeding density, time of assay post-seeding, plate coating, buffer composition, read time and choline concentration.
# CHT [5] = molecular target: T1, CHT; experiment: cell-based
# [6] = molecular target: high affinity choline transporter (CHT); set-up: method as in earlier work; conditions: ref Okuda and Haga, 2000, Okuda et al., cited from earlier work
# [7] = molecular target: T2, high affinity choline transporter (CHT); experiment: Radiometric [3H]Choline uptake assay (scintillation proximity) in HEK cells expressing CHT; format: cell-based; conditions: HEK293, read-out: % inhibition of [3H]Choline uptake by HC-3, 1 μM
# SH-SY5Y cell line = experiment: [3H]Choline uptake in untransformed SH-SY5Y cell line; format: cell-based; conditions: 1 μM HC-3, 10 μM STS
# Text: (§2) Supplementary file Image1.JPEG: Supplementary Figure 1 [^3H] […] Click here for additional data file.
# SK-N-FI cell line = experiment: [3H]Choline uptake in untransformed SK-N-FI cell line; format: cell-based; conditions: 1 μM HC-3, 10 μM STS
# Text: as §2
# SH-SY5Y cells = experiment: Radiometric CHT transport in SH-SY5Y cell backgrounds; format: cell-based; conditions: potentiation could not be demonstrated
# Protocol: as §1
# [8] = inhibitor/NAM compounds, 10-point dose response, HEK293 CHT-WT4, read-out: 3H-choline uptake IC50 or EC50
# [9] = EC50 estimate, [3H]Choline uptake (positive modulators), CHT-WT4 cells, 10-point dose response
# [10] = PAM compounds, 10-point dose response, HEK293 CHT-WT4, n.d. = not detected, read-out: 3H-choline uptake IC50 or EC50
# [11] = 3H-choline uptake IC50 or EC50(M), PAM compounds, 10-point dose response, HEK293 CHT-WT4, n.d. = not detected
structure (smiles),measurement,setting,value
"Cc1oc2nc3c(c(NC(=O)CN4CCCC4=O)c2c1C)CCCC3 [MKC-231, coluracetam, reference compound]",Effect on cell surface localization of CHT,CHT [1],no apparent effect
same,Effect on D9-choline uptake,CHT [2]; 10-point dose response,no apparent effect
same,Effect on CHT current (SURFE2R),CHT [3]; CHT-WT4 membrane preparations,not able to detect any effect
same,"Impact on CHT mediated transport, [3H]Choline uptake","[4]; CHT-WT4 cells, 10-point dose response",unable to see any impact
same,"Impact on CHT mediated transport, [3H]Choline uptake","[4]; CHT-WT4 cells, 10-point dose response, listed as MKC231",no apparent effect
"COc1ccc(C(=O)NCc2cc(C(C)C)no2)cc1OC1CCN(C)CC1 [ML-352, reference compound]",Effect on cell surface localization of CHT,CHT [1],increase in cell surface localization; also recorded: increase transporter density on the cell surface
same,D9-choline uptake % effect 1 μM,CHT [2],96.3%
same,D9-choline uptake % effect 10 μM,CHT [2],104.1%
N#Cc1c[nH]c2ncnc(N3CCC4(CC3)CNCc3ccc(C(F)(F)F)nc34)c12 [Compound 8],Effect on cell surface localization of CHT,CHT [1],increased cell surface localization; also recorded: distinct increase in apparent cell surface localization
same,D9-choline uptake % effect 1 μM,CHT [2],24.5%
same,D9-choline uptake % effect 10 μM,CHT [2],80.2%
same,3H-choline uptake % effect 1 μM,[4]; HEK293 CHT-WT4,9.0%
same,3H-choline uptake % effect 10 μM,[4]; HEK293 CHT-WT4,52.6%
same,EC50,CHT [5],5.1 µM
"C[N+]1(C)CCOC(O)(c2ccc(-c3ccc(C4(O)C[N+](C)(C)CCO4)cc3)cc2)C1 (centres unmarked) [HC-3, hemicholinium-3, reference compound]",Ki,"[6]; Apparsundaram et al., 2001, read-out: Ki, inhibition of choline uptake",0.001 to 0.005 µM
same,inhibition at 1 µM,[7]; CHT-WT5 clone,~61%
same,inhibition at 1 µM,[7]; CHT-WT Pool,~69%
same,Effect on cell surface localization of CHT,CHT [1],increase in cell surface localization; also recorded: increase transporter density on the cell surface
same,Effect on [3H]Choline uptake,SH-SY5Y cell line,No effect
same,IC50,CHT [3],0.0204 µM
same,Effect on [3H]Choline uptake,SK-N-FI cell line,No effect
same,IC50,[4],0.116 µM
same,inhibition at 1 µM,"[4]; HEK293, read-out: % inhibition of [3H]Choline uptake by HC-3, 1 μM, CHT-WT4 clone",~80%
same,IC50,CHT [5],0.0056 µM
O=C(NCc1ccc(Cl)cc1)c1cn2c(N3CCNCC3)nccc2n1 [Compound 5],IC50,[4]; [8],0.67 µM
same,CHT modulator classification in radiometric assay,[4],negative allosteric modulators
O=C(CC1=CCCCC1)Nc1ccnc2ccccc12 [Compound 1],EC50,[4]; [9],3e-07 M
same,EC50,[4]; [10],2.75e-07 M
same,CHT modulator classification in radiometric assay,[4],positive allosteric CHT modulators
Cn1ncc2nc(-c3ccnc(N)c3)nc(N3CCNCC3(C)C)c21 [Compound 9],Effect on cell surface localization of CHT,CHT [1],increased cell surface localization; also recorded: distinct increase in apparent cell surface localization
same,D9-choline uptake % effect 1 μM,CHT [2],30.5%
same,D9-choline uptake % effect 10 μM,CHT [2],64.0%
same,3H-choline uptake % effect 1 μM,[4]; HEK293 CHT-WT4,24.4%
same,3H-choline uptake % effect 10 μM,[4]; HEK293 CHT-WT4,100.0%
same,EC50,CHT [5],5.76 µM
CNC(=O)C1CCCN1c1nc(Cc2ccccc2F)cc(Nc2cc(C3CC3)[nH]n2)n1 (centres unmarked) [Compound 6],Effect on cell surface localization of CHT,CHT [1],no effects; also recorded: no apparent effect
same,D9-choline uptake % effect 1 μM,CHT [2],60.8%
same,D9-choline uptake % effect 10 μM,CHT [2],91.6%
same,3H-choline uptake % effect 1 μM,[4]; HEK293 CHT-WT4,3.6%
same,3H-choline uptake % effect 10 μM,[4]; HEK293 CHT-WT4,23.6%
same,EC50,CHT [5],2.05 µM
"C[N+](C)(C)CCO [choline, Choline Chloride]",Km,"[6]; Apparsundaram et al., 2001, read-out: Km, high-affinity sodium-dependent choline uptake",~2 µM
same,EC50,CHT [3],25 µM
NC(=O)N1C(=O)C(C(=O)Cc2ccccc2)c2cc(F)ccc21 (centres unmarked) [Compound 3],EC50,[4]; [11],4.51e-06 M
same,EC50,[4]; [9],4.5e-06 M
same,CHT modulator classification in radiometric assay,[4],positive allosteric CHT modulators
O=C(NCc1ccc(Cl)cc1)c1ccc2snc(N3CCNCC3)c2c1 [Compound 4],D9-choline uptake % effect 1 μM,CHT [2],12.3%
same,D9-choline uptake % effect 10 μM,CHT [2],118.1%
same,IC50,[4]; [8],1.54 µM
same,CHT modulator classification in radiometric assay,[4],negative allosteric modulators
same,IC50,CHT [5],3.13 µM
O=C(Cn1c(=O)oc2ccccc21)Nc1ccnc2ccccc12 [Compound 2],EC50,[4]; [9],4e-07 M
same,EC50,[4]; [10],4.16e-07 M
same,CHT modulator classification in radiometric assay,[4],positive allosteric CHT modulators
CNC(=O)C1CCC(Nc2nc(Nc3ccc(S(C)(=O)=O)cc3)ncc2C(F)(F)F)C1 (centres unmarked) [Compound 7],Effect on cell surface localization of CHT,CHT [1],no effects; also recorded: no apparent effect
same,D9-choline uptake % effect 1 μM,CHT [2],46.4%
same,D9-choline uptake % effect 10 μM,CHT [2],80.8%
same,3H-choline uptake % effect 1 μM,[4]; HEK293 CHT-WT4,−2.4%
same,3H-choline uptake % effect 10 μM,[4]; HEK293 CHT-WT4,26.7%
same,EC50,CHT [5],2.49 µM
"CN[C@@H]1C[C@H]2O[C@@](C)([C@@H]1OC)n1c3ccccc3c3c4c(c5c6ccccc6n2c5c31)C(=O)NC4 [STS, staurosporine]",Potentiation of CHT transport in SH-SY5Y cell backgrounds,SH-SY5Y cells,toxicity
same,Effect on [3H]Choline uptake,SH-SY5Y cell line,No effect
same,Effect on [3H]Choline uptake,SK-N-FI cell line,No effect
same,EC50,[4]; [11],1.7e-06 M
same,EC50,CHT [5],0.507 µM

# — article PMC5326799, “Discovery of Compounds that Positively Modulate the High Affinity Choline Transporter” (Frontiers in Molecular Neuroscience, 2017)
